Reference: PubChem BioAssay AID434951 (Broad Institute, 2010)
The source made the active and inactive calls.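 How the source made its calls: active means a fitted half-maximal concentration EC50 for the rise in nuclear signal no higher than ten times the top dose tested; inconclusive means flat fit with activity between 30% and 70%, or unusable fit; inactive means EC50 beyond ten times the top dose.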

Molecular target: Hypoxia-inducible factor 1-alpha (Homo sapiens) (UniProt Q16665)
Assay: activators of HIF1alpha nuclear accumulation, confirmation, imaging, fluorescence, U2OS GFP-HIF1alpha (AID 434951)
Details: U2OS GFP-HIF1alpha nuclear intensity, high-content imaging

Hypoxia-inducible factor 1-alpha (Homo sapiens), sequence (Q16665 whole entry, looked up): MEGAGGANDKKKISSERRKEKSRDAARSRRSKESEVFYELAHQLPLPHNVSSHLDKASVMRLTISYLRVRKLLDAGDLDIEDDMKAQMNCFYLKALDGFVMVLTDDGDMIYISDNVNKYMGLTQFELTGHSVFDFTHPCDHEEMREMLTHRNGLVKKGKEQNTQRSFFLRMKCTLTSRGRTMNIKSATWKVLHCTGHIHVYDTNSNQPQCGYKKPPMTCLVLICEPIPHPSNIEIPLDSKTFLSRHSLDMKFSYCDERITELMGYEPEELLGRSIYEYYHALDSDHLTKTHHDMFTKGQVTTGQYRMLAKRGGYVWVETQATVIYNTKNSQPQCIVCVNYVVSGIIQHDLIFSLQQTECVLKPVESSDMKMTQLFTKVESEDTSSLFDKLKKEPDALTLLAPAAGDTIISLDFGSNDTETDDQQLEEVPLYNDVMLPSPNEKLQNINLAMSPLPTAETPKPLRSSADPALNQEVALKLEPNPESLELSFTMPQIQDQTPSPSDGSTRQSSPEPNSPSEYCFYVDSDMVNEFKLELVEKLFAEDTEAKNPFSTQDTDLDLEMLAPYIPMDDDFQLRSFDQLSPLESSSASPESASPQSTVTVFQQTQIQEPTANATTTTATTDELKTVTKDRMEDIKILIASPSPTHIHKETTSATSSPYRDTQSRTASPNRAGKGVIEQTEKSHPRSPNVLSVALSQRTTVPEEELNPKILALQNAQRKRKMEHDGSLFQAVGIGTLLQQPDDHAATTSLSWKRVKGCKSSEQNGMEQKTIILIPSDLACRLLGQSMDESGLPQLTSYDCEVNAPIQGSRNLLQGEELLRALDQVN

SMILES | EC50
O=C(CNC(=O)C(c1ccccc1)c1ccccc1)N/N=C/c1ccc(O)cc1O | > 35 µM (inactive)
O=C(/C=C/c1ccco1)Oc1cc(Br)cc(/C=N/NC(=O)c2ccccc2O)c1 | 5.43 µM
CCC(C)(C)c1nnc(NC(=O)C2CCN(C(=O)c3ccco3)CC2)s1 | > 35 µM (inactive)
COC(=O)[C@H](CCSC)NC(=O)c1cccnc1SC | > 35 µM (inactive)
COC(=O)C1C(=O)N2CCCSC2=C(C#N)C1c1cccs1 (stereo not drawn) | > 35 µM (inactive)
CCc1nc(N2CCN(C(=O)c3ccco3)CC2)c2c3c(sc2n1)CCCC3 | > 35 µM (inactive)
Cc1cc(C)nc(N/N=C/c2cc(Br)ccc2O)n1 | 8.31 µM
Cc1c(C(=O)N2CCCCC2)c(S(=O)(=O)NCCc2ccc(Cl)cc2)c(C)n1C | > 35 µM (inactive)
C/C(=N\O)C(=O)Nc1ccccc1 | > 35 µM (inactive)
O=C(N/N=C/c1ccccn1)c1ccc(Cl)cc1 | 12.8 µM
CCCN(CCC)C(C)C(=O)NCC1(c2ccccc2)CCCC1 (stereo not drawn) | > 35 µM (inactive)
FC(F)(F)c1ccc2c(c1)NP(=S)(N1CCOCC1)c1nccn1-2 (stereo not drawn) | > 35 µM (inactive)
c1ccc(-c2nnc3sc(-c4cc5ccccc5o4)nn23)cc1 | > 35 µM (inactive)
CCN(CC)S(=O)(=O)c1cccc(C(=O)N/N=C(\C)c2ccc(O)cc2O)c1 | 2.12 µM
CCOc1ccc(/C=N/NC(=O)c2[nH]ncc2Br)c(O)c1 | 10.2 µM
CC(C)NC(=O)NC(=O)CSc1nnc(-c2ccccc2F)n1N | > 35 µM (inactive)
OCc1ccc(N=Nc2ccccc2)cc1 | > 35 µM (inactive)
O=C(CN(Cc1ccc(F)cc1)C(=O)CCC(=O)Nc1nccs1)NCC1CCCO1 (stereo not drawn) | > 35 µM (inactive)
COc1cccc(/C=N/Nc2nc3ccccc3[nH]2)c1O | 13.1 µM
CCOc1ccc(NC(=O)CSc2nnc(Cn3cnc4ccccc43)n2C)cc1 | > 35 µM (inactive)
CS(=O)(=O)n1nc(-c2ccccc2)nc1NCc1ccco1 | > 35 µM (inactive)
CCCCc1ccc(NC(=O)C2CCN(S(C)(=O)=O)CC2)cc1 | > 35 µM (inactive)
Cc1ccc(-c2nnn(CC(=O)N(Cc3cccs3)C(C(=O)NC3CCCCC3)c3ccco3)n2)o1 (stereo not drawn) | 33.4 µM
Cc1nn(C(=O)c2cccnc2)c(C)c1Sc1ccccc1 | > 35 µM (inactive)
Cc1ccc(-c2csc3nc(SCC(=O)N(C)C)n(Cc4ccccc4)c(=O)c23)cc1 | 5.26 µM

SMILES | EC50
COc1cc2ccccc2cc1C(=O)Nc1ccc(C)cc1 | > 35 µM (inactive)
Cc1oc(-c2ccc(Cl)cc2)nc1CS(=O)CC(=O)NCCN1CCCCCC1 (stereo not drawn) | > 35 µM (inactive)
O=C(c1cc(Br)ccc1Cl)N1CCC2(CC1)OCCO2 | > 35 µM (inactive)
Oc1c(CN2CCOCC2)cc(COCc2ccccc2)c2cccnc12 | 6.71 µM
Cc1cc(NC(=O)CCCS(=O)(=O)c2nc(-c3cccs3)cc(C(F)(F)F)n2)no1 | > 35 µM (inactive)
COc1ccccc1NC(=O)CN(C)S(=O)(=O)c1cccc2cccnc12 | > 35 µM (inactive)
Cc1snc(SCC(=O)N/N=C(\N)COc2cccc(C(F)(F)F)c2)c1C#N | 22.5 µM
O=C(NCc1ccc(F)cc1)C1CCN(S(=O)(=O)N2CCOCC2)CC1 | > 35 µM (inactive)
O=C(N/N=C\c1c(O)ccc2ccccc12)c1cncc(Br)c1 | 6.48 µM
CC(C)CC1NC(=O)N(Cc2cc(=O)n3ccsc3n2)C1=O (stereo not drawn) | > 35 µM (inactive)
COC(=O)CN1C(=O)[C@H]2[C@@H](c3ccc(C)o3)N3C(=O)CN(CC4CC4)C(=O)[C@@]3(Cc3ccccc3)[C@H]2C1=O | > 35 µM (inactive)
Cc1nc2ccccc2nc1N/N=C/c1ccc(O)cc1O | 36.5 µM
COc1ccccc1-c1cc(C(F)(F)F)nc(S(=O)(=O)CCCC(=O)NCc2ccc(F)cc2)n1 | 9.53 µM
O=C(NNC(=O)c1ccccc1Br)c1ccc(Cl)cc1 | > 35 µM (inactive)
CCOC(=O)C1CCCN(C(=O)c2ccc3oc(CCc4ccccc4)nc3c2)C1 (stereo not drawn) | > 35 µM (inactive)
O=C(N/N=C/c1cc(Br)ccc1O)C(c1ccncc1)N1CCOCC1 (stereo not drawn) | > 35 µM (inactive)
CCN(CC)c1ccc(/C=N/NC(=O)c2cccc(S(=O)(=O)Nc3ccccc3OC)c2)c(O)c1 | 0.838 µM
Cn1cc(CN2CCC(C(=O)Nc3cccc(-c4cscn4)c3)CC2)cn1 | > 35 µM (inactive)
O=C(CCN1C(=O)S/C(=C\c2ccc(F)cc2)C1=O)Nc1ccc(C(=O)O)c(O)c1 | > 35 µM (inactive)
Cc1cc(C)c(NS(=O)(=O)c2ccc3c(c2)NC(=O)CCS3)c(C)c1 | > 35 µM (inactive)
CC(=O)c1ccc(N(C(=O)c2csnn2)C(C(=O)NC(C)(C)C)c2cccs2)cc1 (stereo not drawn) | > 35 µM (inactive)
COC(=O)/C(C#N)=C/c1c(N2CCN(Cc3ccc4c(c3)OCO4)CC2)nc2c(C)cccn2c1=O | > 35 µM (inactive)
CN(C)c1nc(-c2ccccn2)nnc1-c1ccccc1 | 6.68 µM
COc1ccc(N2CCN(C(=O)C3COc4ccccc4O3)CC2)cc1 (stereo not drawn) | > 35 µM (inactive)
COc1cnc(-c2ccccn2)nc1N(C)c1ccccc1 | 9.27 µM

SMILES | EC50
CCCC(=O)NC(c1ccc(OC)cc1)c1ccc2cccnc2c1O (stereo not drawn) | 7.24 µM
COc1ccc(OC)c(C2=Nn3c(nnc3-c3cc(C)[nH]n3)SC2)c1 | > 35 µM (inactive)
CCC(=O)N1CCc2cc(S(=O)(=O)NCCC(=O)N3CCN(c4cccc(OC)c4)CC3)ccc21 | > 35 µM (inactive)
O=C(N/N=C(\c1ccccc1)c1cccnc1)c1cccc(F)c1 | 2.62 µM
CN(C)c1ccc(N=Nc2ccc(S(N)(=O)=O)cc2)cc1 | > 35 µM (inactive)
CN(/N=C/c1c[nH]c2ccccc12)c1cnn(-c2ccc(F)c(Cl)c2)c(=O)c1Cl | > 35 µM (inactive)
O=C(O)c1ccccc1Nc1ccc([N+](=O)[O-])cc1C(=O)O | > 35 µM (inactive)
Cc1ccc(C2=NOC(=O)/C2=C\c2ccccc2)cc1 | > 35 µM (inactive)
CC(=O)N1CCC(=NNc2nc3ccccc3[nH]2)CC1 | > 35 µM (inactive)
CC(C)Cc1nnc(NC(=O)CCC(=O)N2CCC3(CC2)OCCO3)s1 | > 35 µM (inactive)
O=C(Nc1ccccc1O)c1ccc(NC(=O)C2CC2)cc1 | 10.8 µM
O=C(CSc1nc2ccccc2c(=O)n1-c1ccccc1)NC(=O)CN1CCCC1=O | > 35 µM (inactive)
CC(=O)NC(c1ccc(C(C)C)cc1)c1ccc2cccnc2c1O (stereo not drawn) | 1.33 µM
C=CCOc1ccc(/C=C2\SC(N)=NC2=O)cc1OC | > 35 µM (inactive)
O=C1NC(=O)/C(=C/c2ccc(OS(=O)(=O)c3ccc(F)cc3F)cc2)N1 | > 35 µM (inactive)
CCOc1ccccc1CN1CCN(S(C)(=O)=O)CC1 | > 35 µM (inactive)
CC(C)C(=O)NC(c1ccc(Cl)cc1Cl)c1ccc2cccnc2c1O (stereo not drawn) | 4.88 µM
CCCCC(=O)NC(c1ccc(N(C)C)cc1)c1ccc2cccnc2c1O (stereo not drawn) | 3.09 µM
Nc1ccc(C(=O)Nc2ccc3nc(-c4ccncc4)[nH]c3c2)cc1 | > 35 µM (inactive)
CCCCc1c(C)nc(N)[nH]c1=O | > 35 µM (inactive)
COc1ccc(CNC(=S)N/N=C/c2ccc(O)c(OC)c2)cc1 | > 35 µM (inactive)
CCC(Sc1nc(C)cc(=O)[nH]1)C(=O)Nc1sc2c(c1C#N)CCCC2 (stereo not drawn) | > 35 µM (inactive)
Cc1ccc2nc(-c3ccccc3NC(=O)CCC(=O)O)c(=O)[nH]c2c1 | > 35 µM (inactive)
